Measurements: patent US20100216795A1, “TNIK INHIBITOR AND THE USE” (priority 2008, published 2010)

How the values were obtained:
Assay type in all cases: biochemical
CSK = molecular target: T1, CSK (Homo sapiens, UniProt P41240); test: Selectivity profiling, QuickScout TK Screening Panel
T1 construct: purchased Carna Biosciences
Protocol: (§1) The inhibitory effects of Compound 1 against 20 tyrosine kinases and 30 serine/threonine kinases were investigated using QuickScout™ TK and STK Screening Panel (Carna Biosciences, Kobe Japan). […] The results reveal that Compound 1 inhibits TNIK_N more potently (IC50; 9 nM) than the other 50 kinases.

MET = molecular target: T2, MET (Homo sapiens, UniProt P08581); test: as above
T2 construct: purchased Carna Biosciences
Protocol: as §1

FGFR1 = molecular target: T3, FGFR1 (Homo sapiens, UniProt P11362); test: as above
T3 construct: purchased Carna Biosciences
T3 sequence (P11362 22-822): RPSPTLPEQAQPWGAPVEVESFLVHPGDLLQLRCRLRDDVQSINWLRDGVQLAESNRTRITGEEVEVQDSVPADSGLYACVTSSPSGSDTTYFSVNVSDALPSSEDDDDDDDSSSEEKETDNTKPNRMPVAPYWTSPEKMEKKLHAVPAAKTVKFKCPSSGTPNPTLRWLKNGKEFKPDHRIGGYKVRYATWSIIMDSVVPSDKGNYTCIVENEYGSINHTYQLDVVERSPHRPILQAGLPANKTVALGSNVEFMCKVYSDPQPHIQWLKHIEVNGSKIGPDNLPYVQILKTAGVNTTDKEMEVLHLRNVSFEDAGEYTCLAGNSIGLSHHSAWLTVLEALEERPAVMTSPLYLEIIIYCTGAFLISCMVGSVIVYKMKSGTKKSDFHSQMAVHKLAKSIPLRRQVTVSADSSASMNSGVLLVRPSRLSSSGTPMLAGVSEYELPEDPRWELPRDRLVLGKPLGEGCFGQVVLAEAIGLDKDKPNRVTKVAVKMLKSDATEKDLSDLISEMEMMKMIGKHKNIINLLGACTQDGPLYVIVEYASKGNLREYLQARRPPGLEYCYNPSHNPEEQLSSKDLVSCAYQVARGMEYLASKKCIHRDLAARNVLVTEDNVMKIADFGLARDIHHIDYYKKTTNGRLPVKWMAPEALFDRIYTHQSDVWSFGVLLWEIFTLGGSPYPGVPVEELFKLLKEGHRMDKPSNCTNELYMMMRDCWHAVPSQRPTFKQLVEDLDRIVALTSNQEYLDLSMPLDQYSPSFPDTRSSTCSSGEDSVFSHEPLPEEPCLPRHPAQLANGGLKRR
Protocol: as §1

EphB4 = molecular target: T4, EphB4 (Homo sapiens, UniProt P54760); test: as above
T4 construct: purchased Carna Biosciences
Protocol: as §1

EphA2 = molecular target: T5, EphA2 (Homo sapiens, UniProt P29317); test: as above
T5 construct: purchased Carna Biosciences
T5 sequence (P29317 24-976): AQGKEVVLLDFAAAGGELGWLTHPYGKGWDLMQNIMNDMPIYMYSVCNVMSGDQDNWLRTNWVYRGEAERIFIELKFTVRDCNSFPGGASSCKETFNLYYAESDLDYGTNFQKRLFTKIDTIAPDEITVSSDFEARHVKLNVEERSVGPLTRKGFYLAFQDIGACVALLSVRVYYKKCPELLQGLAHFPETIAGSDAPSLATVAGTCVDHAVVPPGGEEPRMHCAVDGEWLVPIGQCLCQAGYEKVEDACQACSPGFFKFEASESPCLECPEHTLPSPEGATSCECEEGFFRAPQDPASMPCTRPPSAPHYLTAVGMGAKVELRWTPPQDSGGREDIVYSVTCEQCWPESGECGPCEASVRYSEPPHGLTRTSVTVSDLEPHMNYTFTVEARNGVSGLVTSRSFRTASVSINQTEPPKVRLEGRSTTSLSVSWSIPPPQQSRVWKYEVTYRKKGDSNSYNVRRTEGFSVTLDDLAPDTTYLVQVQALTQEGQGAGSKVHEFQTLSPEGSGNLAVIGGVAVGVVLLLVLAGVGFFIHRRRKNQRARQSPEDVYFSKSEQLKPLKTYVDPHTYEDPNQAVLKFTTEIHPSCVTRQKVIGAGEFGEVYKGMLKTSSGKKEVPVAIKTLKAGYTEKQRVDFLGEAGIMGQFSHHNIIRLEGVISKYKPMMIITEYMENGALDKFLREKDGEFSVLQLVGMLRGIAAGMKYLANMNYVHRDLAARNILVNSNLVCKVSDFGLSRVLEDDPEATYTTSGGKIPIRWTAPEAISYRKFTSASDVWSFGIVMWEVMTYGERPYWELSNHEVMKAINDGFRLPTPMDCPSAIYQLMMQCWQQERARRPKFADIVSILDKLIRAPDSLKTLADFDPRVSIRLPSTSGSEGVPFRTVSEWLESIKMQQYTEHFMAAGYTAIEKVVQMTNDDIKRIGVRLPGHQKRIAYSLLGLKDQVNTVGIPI
Protocol: as §1

FLT3 = molecular target: T6, FLT3 (Homo sapiens, UniProt P36888); test: as above
T6 construct: purchased Carna Biosciences
Protocol: as §1

TYRO3 = molecular target: T7, TYRO3 (Homo sapiens, UniProt Q06418); test: as above
T7 construct: purchased Carna Biosciences
Protocol: as §1

PYK2 = molecular target: T8, PYK2 (Homo sapiens, UniProt Q14289); test: as above
T8 construct: purchased Carna Biosciences
Protocol: as §1

LCK = molecular target: T9, LCK (Homo sapiens, UniProt P06239); test: as above
T9 construct: purchased Carna Biosciences
T9 sequence (P06239 whole entry): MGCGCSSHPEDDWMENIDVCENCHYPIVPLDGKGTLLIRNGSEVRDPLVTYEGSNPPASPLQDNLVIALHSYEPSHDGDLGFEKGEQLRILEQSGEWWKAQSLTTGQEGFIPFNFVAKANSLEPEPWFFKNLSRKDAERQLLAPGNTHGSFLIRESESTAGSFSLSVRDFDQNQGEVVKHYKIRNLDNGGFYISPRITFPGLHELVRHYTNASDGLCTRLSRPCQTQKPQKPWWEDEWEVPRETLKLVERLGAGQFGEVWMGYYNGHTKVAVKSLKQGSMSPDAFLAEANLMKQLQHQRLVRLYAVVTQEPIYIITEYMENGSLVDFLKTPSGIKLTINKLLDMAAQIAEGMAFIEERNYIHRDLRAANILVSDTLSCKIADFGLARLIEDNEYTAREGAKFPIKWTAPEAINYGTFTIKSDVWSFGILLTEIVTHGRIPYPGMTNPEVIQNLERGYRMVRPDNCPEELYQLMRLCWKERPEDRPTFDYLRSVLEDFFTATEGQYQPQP
Protocol: as §1

ITK = molecular target: T10, ITK (Homo sapiens, UniProt Q08881); test: as above
T10 construct: purchased Carna Biosciences
Protocol: as §1

KDR = molecular target: T11, KDR (Homo sapiens, UniProt P35968); test: as above
T11 construct: purchased Carna Biosciences
Protocol: as §1

SYK = molecular target: T12, SYK (Homo sapiens, UniProt P43405); test: as above
T12 construct: purchased Carna Biosciences
Protocol: as §1

IGF1R = molecular target: T13, IGF1R (Homo sapiens, UniProt P08069); test: as above
T13 construct: purchased Carna Biosciences
Protocol: as §1

ABL = molecular target: T14, ABL (Homo sapiens, UniProt P00519); test: as above
T14 construct: purchased Carna Biosciences
Protocol: as §1

TRKA = molecular target: T15, TRKA (Homo sapiens, UniProt P04629); test: as above
T15 construct: purchased Carna Biosciences
Protocol: as §1

JAK3 = molecular target: T16, JAK3 (Homo sapiens, UniProt P52333); test: as above
T16 construct: purchased Carna Biosciences
Protocol: as §1

PDGFRa = molecular target: T17, PDGFRa (Homo sapiens, UniProt P16234); test: as above
T17 construct: purchased Carna Biosciences
Protocol: as §1

SRC = molecular target: T18, SRC (Homo sapiens, UniProt P12931); test: as above
T18 construct: purchased Carna Biosciences
Protocol: as §1

TIE2 = molecular target: T19, TIE2 (Homo sapiens, UniProt Q02763); test: as above
T19 construct: purchased Carna Biosciences
T19 sequence (Q02763 23-1124): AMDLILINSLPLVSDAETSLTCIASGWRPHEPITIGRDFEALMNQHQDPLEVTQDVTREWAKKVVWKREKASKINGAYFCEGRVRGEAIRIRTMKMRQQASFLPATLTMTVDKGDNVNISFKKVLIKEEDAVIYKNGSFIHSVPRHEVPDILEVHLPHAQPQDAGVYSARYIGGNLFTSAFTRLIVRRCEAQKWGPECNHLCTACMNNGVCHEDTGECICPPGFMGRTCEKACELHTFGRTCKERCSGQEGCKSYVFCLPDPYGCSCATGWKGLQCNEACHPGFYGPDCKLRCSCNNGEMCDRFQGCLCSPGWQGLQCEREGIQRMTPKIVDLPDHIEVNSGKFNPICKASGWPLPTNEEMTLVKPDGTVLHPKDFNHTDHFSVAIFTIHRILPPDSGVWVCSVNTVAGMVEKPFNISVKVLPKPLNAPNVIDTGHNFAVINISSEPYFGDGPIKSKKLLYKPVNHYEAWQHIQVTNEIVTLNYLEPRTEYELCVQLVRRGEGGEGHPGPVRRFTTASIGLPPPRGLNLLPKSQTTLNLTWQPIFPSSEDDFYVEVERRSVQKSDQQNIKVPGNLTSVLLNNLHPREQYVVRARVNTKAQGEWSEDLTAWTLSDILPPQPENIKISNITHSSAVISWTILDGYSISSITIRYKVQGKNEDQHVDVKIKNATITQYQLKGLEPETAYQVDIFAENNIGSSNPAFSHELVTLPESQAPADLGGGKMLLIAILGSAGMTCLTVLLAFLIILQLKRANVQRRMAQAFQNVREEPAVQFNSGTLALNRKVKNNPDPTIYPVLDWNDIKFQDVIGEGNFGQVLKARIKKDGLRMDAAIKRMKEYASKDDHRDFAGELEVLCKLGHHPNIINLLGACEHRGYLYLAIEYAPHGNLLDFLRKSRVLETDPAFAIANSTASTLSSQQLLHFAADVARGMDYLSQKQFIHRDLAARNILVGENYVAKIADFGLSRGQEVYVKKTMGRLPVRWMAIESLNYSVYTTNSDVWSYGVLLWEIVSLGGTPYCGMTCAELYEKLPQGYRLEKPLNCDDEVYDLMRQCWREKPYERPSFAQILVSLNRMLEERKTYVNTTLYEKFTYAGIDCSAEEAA
Protocol: as §1

PDK1 = molecular target: T20, PDK1 (Homo sapiens, UniProt O15530); test: Selectivity profiling, QuickScout STK Screening Panel
T20 construct: purchased Carna Biosciences
Protocol: as §1

PIM1 = molecular target: T21, PIM1 (Homo sapiens, UniProt P11309); test: as above
T21 construct: purchased Carna Biosciences
Protocol: as §1

MLK1 = molecular target: T22, MLK1 (Homo sapiens, UniProt P80192); test: as above
T22 construct: purchased Carna Biosciences
Protocol: as §1

Erk2 = molecular target: T23, Erk2 (Homo sapiens, UniProt P28482); test: as above
T23 construct: purchased Carna Biosciences
Protocol: as §1

p70S6K = molecular target: T24, p70S6K (Homo sapiens, UniProt P23443); test: as above
T24 construct: purchased Carna Biosciences
Protocol: as §1

p38a = molecular target: T25, p38a (Homo sapiens, UniProt Q16539); test: as above
T25 construct: purchased Carna Biosciences
Protocol: as §1

CHK1 = molecular target: T26, CHK1 (Homo sapiens, UniProt O14757); test: as above
T26 construct: purchased Carna Biosciences
Protocol: as §1

GSK3b = molecular target: T27, GSK3b (Homo sapiens, UniProt P49841); test: as above
T27 construct: purchased Carna Biosciences
Protocol: as §1

AKT1 = molecular target: T28, AKT1 (Homo sapiens, UniProt P31749); test: as above
T28 construct: purchased Carna Biosciences
Protocol: as §1

MAP2K1 = molecular target: T29, MAP2K1 (Homo sapiens, UniProt Q02750); test: as above
T29 construct: purchased Carna Biosciences
Protocol: as §1

RAF1 = RAF1 (Homo sapiens, UniProt P04049); test: as above
Protocol: as §1

CaMK4 = molecular target: T30, CaMK4 (Homo sapiens, UniProt Q16566); test: as above
T30 construct: purchased Carna Biosciences
Protocol: as §1

AurA = molecular target: T31, AurA (Homo sapiens, UniProt O14965); test: as above
T31 construct: purchased Carna Biosciences
Protocol: as §1

IRAK4 = molecular target: T32, IRAK4 (Homo sapiens, UniProt Q9NWZ3); test: as above
T32 construct: purchased Carna Biosciences
T32 sequence (Q9NWZ3 whole entry): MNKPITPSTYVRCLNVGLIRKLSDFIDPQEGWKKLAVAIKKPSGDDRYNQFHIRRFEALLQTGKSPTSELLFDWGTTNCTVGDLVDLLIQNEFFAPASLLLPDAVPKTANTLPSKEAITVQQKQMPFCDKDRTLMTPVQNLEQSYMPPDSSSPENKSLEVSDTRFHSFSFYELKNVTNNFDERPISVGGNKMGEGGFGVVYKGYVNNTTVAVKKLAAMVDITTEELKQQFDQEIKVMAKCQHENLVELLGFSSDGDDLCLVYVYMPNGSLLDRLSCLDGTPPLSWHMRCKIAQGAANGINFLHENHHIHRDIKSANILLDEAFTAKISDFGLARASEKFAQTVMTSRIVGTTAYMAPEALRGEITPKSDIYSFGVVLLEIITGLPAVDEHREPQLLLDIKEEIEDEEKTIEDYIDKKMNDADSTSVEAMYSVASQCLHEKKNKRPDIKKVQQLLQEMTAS
Protocol: as §1

PKACa = molecular target: T33, PKACa (Homo sapiens, UniProt P17612); test: as above
T33 construct: purchased Carna Biosciences
Protocol: as §1

DYRK1B = molecular target: T34, DYRK1B (Homo sapiens, UniProt Q9Y463); test: as above
T34 construct: purchased Carna Biosciences
T34 sequence (Q9Y463 whole entry): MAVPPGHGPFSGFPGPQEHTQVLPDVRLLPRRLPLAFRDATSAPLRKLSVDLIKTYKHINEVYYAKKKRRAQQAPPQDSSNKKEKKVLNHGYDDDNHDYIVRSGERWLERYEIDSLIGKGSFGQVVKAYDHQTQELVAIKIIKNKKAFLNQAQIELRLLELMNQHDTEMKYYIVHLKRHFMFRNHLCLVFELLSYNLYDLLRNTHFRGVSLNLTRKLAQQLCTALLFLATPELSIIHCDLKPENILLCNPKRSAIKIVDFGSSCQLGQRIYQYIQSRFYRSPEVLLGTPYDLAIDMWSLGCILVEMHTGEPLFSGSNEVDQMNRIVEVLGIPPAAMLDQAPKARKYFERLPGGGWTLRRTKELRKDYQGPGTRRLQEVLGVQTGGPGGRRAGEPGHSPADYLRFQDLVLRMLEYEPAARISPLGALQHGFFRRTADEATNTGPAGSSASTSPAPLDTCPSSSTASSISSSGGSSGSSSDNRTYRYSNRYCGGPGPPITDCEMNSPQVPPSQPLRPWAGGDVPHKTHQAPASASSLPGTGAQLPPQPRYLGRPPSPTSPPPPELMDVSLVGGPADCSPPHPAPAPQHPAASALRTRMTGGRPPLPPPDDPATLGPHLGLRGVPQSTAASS
Protocol: as §1

SGK = molecular target: T35, SGK (Homo sapiens, UniProt O00141); test: as above
T35 construct: purchased Carna Biosciences
T35 sequence (O00141 whole entry): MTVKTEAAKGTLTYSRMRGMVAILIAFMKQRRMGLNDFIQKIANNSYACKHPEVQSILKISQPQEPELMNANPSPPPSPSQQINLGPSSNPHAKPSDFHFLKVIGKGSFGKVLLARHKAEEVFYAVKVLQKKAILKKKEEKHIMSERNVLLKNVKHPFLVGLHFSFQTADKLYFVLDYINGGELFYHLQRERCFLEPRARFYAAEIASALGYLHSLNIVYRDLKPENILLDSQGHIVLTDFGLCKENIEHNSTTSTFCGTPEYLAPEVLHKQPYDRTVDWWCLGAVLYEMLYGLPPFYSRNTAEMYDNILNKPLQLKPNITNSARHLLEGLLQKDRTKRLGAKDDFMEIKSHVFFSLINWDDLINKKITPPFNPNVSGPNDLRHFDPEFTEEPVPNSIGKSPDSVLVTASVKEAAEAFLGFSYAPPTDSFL
Protocol: as §1

MAPKAPK2 = molecular target: T36, MAPKAPK2 (Homo sapiens, UniProt P49137); test: as above
T36 construct: purchased Carna Biosciences
Protocol: as §1

DAPK1 = molecular target: T37, DAPK1 (Homo sapiens, UniProt P53355); test: as above
T37 construct: purchased Carna Biosciences
Protocol: as §1

AMPKa1/b1/g1 = molecular target: T38, AMPKa1/b1/g1 (Homo sapiens, UniProt P54619+Q13131+Q9Y478); test: as above
T38 construct: purchased Carna Biosciences
Protocol: as §1

CDK2 = molecular target: T39, CDK2 (Homo sapiens, UniProt P24941); test: as above
T39 construct: purchased Carna Biosciences
Protocol: as §1

PKD2 = molecular target: T40, PKD2 (Homo sapiens, UniProt Q9BZL6); test: as above
T40 construct: purchased Carna Biosciences
Protocol: as §1

IC50 (CSK): > 300 nM | IC50 (MET): > 300 nM | IC50 (FGFR1): > 300 nM | IC50 (EphB4): > 300 nM | IC50 (EphA2): > 300 nM | IC50 (FLT3): 95 nM | IC50 (TYRO3): > 300 nM | IC50 (PYK2): > 300 nM | IC50 (LCK): > 300 nM | IC50 (ITK): > 300 nM | IC50 (KDR): 59 nM | IC50 (SYK): > 300 nM | IC50 (IGF1R): > 300 nM | IC50 (ABL): 290 nM | IC50 (TRKA): > 300 nM | IC50 (JAK3): > 300 nM | IC50 (PDGFRa): 150 nM | IC50 (SRC): > 300 nM | IC50 (TIE2): > 300 nM | IC50 (PDK1): > 300 nM | IC50 (PIM1): > 300 nM | IC50 (MLK1): 18 nM | IC50 (Erk2): > 300 nM | IC50 (p70S6K): > 300 nM | IC50 (p38a): > 300 nM | IC50 (CHK1): > 300 nM | IC50 (GSK3b): 120 nM | IC50 (AKT1): > 300 nM | IC50 (MAP2K1): > 300 nM | IC50 (RAF1): > 300 nM | IC50 (CaMK4): > 300 nM | IC50 (AurA): 130 nM | IC50 (IRAK4): > 300 nM | IC50 (PKACa): > 300 nM | IC50 (DYRK1B): > 300 nM | IC50 (SGK): > 300 nM | IC50 (MAPKAPK2): > 300 nM | IC50 (DAPK1): > 300 nM | IC50 (AMPKa1/b1/g1): > 300 nM | IC50 (CDK2): > 300 nM | IC50 (PKD2): > 300 nM
SMILES: CC(=O)Nc1ccc(C(=O)Nc2sc(Nc3ccccc3)nc2C(N)=O)cc1 [Compound 1, 5-(4-acetamidobenzamido)-2-(phenylamino)thiazole-4-carboxamide]
